Laboratory results from PubChem BioAssay (NCI).
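Five compound concentrations were applied to cells in 96-well plates for 48 hours; endpoints were derived by simple linear interpolation of the resulting dose-response curve. The concentration for 50% growth inhibition is given as GI50. TGI: total growth inhibition.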

Assays:
Assay in all cases: DTP human tumour cell line panel, 48 h; in the data active = GI50 below about 0.43 µM; inactive = the rest
786-0 renal = tested on: 786-0 renal
A498 renal = tested on: A498 renal
A549 NSCLC = tested on: A549 NSCLC
ACHN renal = tested on: ACHN renal
CAKI-1 renal = tested on: CAKI-1 renal
CCRF-CEM leukemia = tested on: CCRF-CEM leukemia
COLO 205 colon = tested on: COLO 205 colon
DU-145 prostate = tested on: DU-145 prostate
EKVX NSCLC = tested on: EKVX NSCLC
HCT-116 colon = tested on: HCT-116 colon
HCT-15 colon = tested on: HCT-15 colon
HL-60(TB) leukemia = tested on: HL-60(TB) leukemia
HOP-62 NSCLC = tested on: HOP-62 NSCLC
HOP-92 NSCLC = tested on: HOP-92 NSCLC
HS 578T breast = tested on: HS 578T breast
HT29 colon = tested on: HT29 colon
IGROV1 ovarian = tested on: IGROV1 ovarian
K-562 leukemia = tested on: K-562 leukemia
KM12 colon = tested on: KM12 colon
LOX IMVI melanoma = tested on: LOX IMVI melanoma
M14 melanoma = tested on: M14 melanoma
MALME-3M melanoma = tested on: MALME-3M melanoma
MCF7 breast = tested on: MCF7 breast
MDA-MB-231 breast = tested on: MDA-MB-231 breast
MDA-MB-435 = tested on: MDA-MB-435
MOLT-4 leukemia = tested on: MOLT-4 leukemia
NCI-H226 lung = tested on: NCI-H226 lung
NCI-H23 lung = tested on: NCI-H23 lung
NCI-H460 lung = tested on: NCI-H460 lung
NCI-H522 lung = tested on: NCI-H522 lung
NCI/ADR-RES ovarian = tested on: NCI/ADR-RES ovarian
OVCAR-3 ovarian = tested on: OVCAR-3 ovarian
OVCAR-4 ovarian = tested on: OVCAR-4 ovarian
OVCAR-5 ovarian = tested on: OVCAR-5 ovarian
OVCAR-8 ovarian = tested on: OVCAR-8 ovarian
PC-3 prostate = tested on: PC-3 prostate
RPMI-8226 leukemia = tested on: RPMI-8226 leukemia
RXF 393 renal = tested on: RXF 393 renal
SF-268 CNS = tested on: SF-268 CNS
SF-295 CNS = tested on: SF-295 CNS
SF-539 CNS = tested on: SF-539 CNS
SK-MEL-2 melanoma = tested on: SK-MEL-2 melanoma
SK-MEL-28 melanoma = tested on: SK-MEL-28 melanoma
SK-MEL-5 melanoma = tested on: SK-MEL-5 melanoma
SN12C renal = tested on: SN12C renal
SNB-19 CNS = tested on: SNB-19 CNS
SNB-75 CNS = tested on: SNB-75 CNS
SR leukemia = tested on: SR leukemia
SW-620 colon = tested on: SW-620 colon
T-47D breast = tested on: T-47D breast
TK-10 renal = tested on: TK-10 renal
U251 CNS = tested on: U251 CNS
UACC-257 melanoma = tested on: UACC-257 melanoma
UACC-62 melanoma = tested on: UACC-62 melanoma
UO-31 renal = tested on: UO-31 renal
BT-549 breast = tested on: BT-549 breast

CCOC1=NC(C(F)(F)F)(C(F)(F)F)N=C(N2CCCCC2)O1
> 100 µM: TGI (786-0 renal) | TGI (A498 renal) | TGI (A549 NSCLC) | TGI (ACHN renal) | TGI (CAKI-1 renal) | TGI (CCRF-CEM leukemia) | TGI (COLO 205 colon) | TGI (DU-145 prostate) | TGI (EKVX NSCLC) | TGI (HCT-116 colon) | TGI (HCT-15 colon) | TGI (HL-60(TB) leukemia) | TGI (HOP-62 NSCLC) | TGI (HOP-92 NSCLC) | TGI (HS 578T breast) | TGI (HT29 colon) | TGI (IGROV1 ovarian) | TGI (K-562 leukemia) | TGI (KM12 colon) | TGI (LOX IMVI melanoma) | TGI (M14 melanoma) | TGI (MALME-3M melanoma) | TGI (MCF7 breast) | TGI (MDA-MB-231 breast) | TGI (MDA-MB-435) | TGI (MOLT-4 leukemia) | TGI (NCI-H226 lung) | TGI (NCI-H23 lung) | TGI (NCI-H460 lung) | TGI (NCI-H522 lung) | TGI (NCI/ADR-RES ovarian) | TGI (OVCAR-3 ovarian) | TGI (OVCAR-4 ovarian) | TGI (OVCAR-5 ovarian) | TGI (OVCAR-8 ovarian) | TGI (PC-3 prostate) | TGI (RPMI-8226 leukemia) | TGI (RXF 393 renal) | TGI (SF-268 CNS) | TGI (SF-295 CNS) | TGI (SF-539 CNS) | TGI (SK-MEL-2 melanoma) | TGI (SK-MEL-28 melanoma) | TGI (SK-MEL-5 melanoma) | TGI (SN12C renal) | TGI (SNB-19 CNS) | TGI (SNB-75 CNS) | TGI (SR leukemia) | TGI (SW-620 colon) | TGI (T-47D breast) | TGI (TK-10 renal) | TGI (U251 CNS) | TGI (UACC-257 melanoma) | TGI (UACC-62 melanoma) | TGI (UO-31 renal)

C[C@]12CCc3sc(Nc4ccc(F)cc4F)nc3C1=CC[C@@H]1[C@@H]2CC[C@]2(C)C(=O)CC[C@@H]12
inactive: GI50 (K-562 leukemia) 2.43 µM | GI50 (MOLT-4 leukemia) 2.44 µM | GI50 (OVCAR-8 ovarian) 2.96 µM
> 100 µM: TGI (K-562 leukemia) | TGI (MOLT-4 leukemia) | TGI (OVCAR-8 ovarian)

O=[N+]([O-])c1ccc(C2CC3(c4ccccc4)ON=C(c4ccccc4)N3c3ccccc3S2)cc1 (centres undefined)
inactive: GI50 (HCT-116 colon) 19.7 µM | GI50 (HOP-62 NSCLC) 58.9 µM | GI50 (HOP-92 NSCLC) 78.2 µM | GI50 (K-562 leukemia) 83.6 µM | GI50 (OVCAR-4 ovarian) 76.1 µM | GI50 (SF-295 CNS) 80.8 µM | GI50 (SF-539 CNS) 68.9 µM | GI50 (SK-MEL-2 melanoma) 40.3 µM | GI50 (SNB-75 CNS) 37.4 µM
7.95 µM: TGI (TK-10 renal)
active: GI50 (TK-10 renal) 0.0149 µM

COc1c(N2CCN(CN3C(=O)C(=O)c4ccccc43)C(C)C2)c(F)cc2c(=O)c(C(=O)O)cn(C3CC3)c12 (centres undefined)
> 100 µM: TGI (786-0 renal) | TGI (A498 renal) | TGI (A549 NSCLC) | TGI (ACHN renal) | TGI (BT-549 breast) | TGI (CAKI-1 renal) | TGI (COLO 205 colon) | TGI (DU-145 prostate) | TGI (EKVX NSCLC) | TGI (HCT-116 colon) | TGI (HCT-15 colon) | TGI (HL-60(TB) leukemia) | TGI (HS 578T breast) | TGI (HT29 colon) | TGI (IGROV1 ovarian) | TGI (K-562 leukemia) | TGI (KM12 colon) | TGI (LOX IMVI melanoma) | TGI (M14 melanoma) | TGI (MCF7 breast) | TGI (MDA-MB-231 breast) | TGI (MDA-MB-435) | TGI (MOLT-4 leukemia) | TGI (NCI-H226 lung) | TGI (NCI-H23 lung) | TGI (NCI-H460 lung) | TGI (NCI-H522 lung) | TGI (NCI/ADR-RES ovarian) | TGI (OVCAR-3 ovarian) | TGI (OVCAR-4 ovarian) | TGI (OVCAR-8 ovarian) | TGI (PC-3 prostate) | TGI (RPMI-8226 leukemia) | TGI (RXF 393 renal) | TGI (SF-268 CNS) | TGI (SF-295 CNS) | TGI (SF-539 CNS) | TGI (SK-MEL-2 melanoma) | TGI (SK-MEL-28 melanoma) | TGI (SK-MEL-5 melanoma) | TGI (SN12C renal) | TGI (SNB-19 CNS) | TGI (SNB-75 CNS) | TGI (SR leukemia) | TGI (SW-620 colon) | TGI (U251 CNS) | TGI (UACC-257 melanoma) | TGI (UACC-62 melanoma) | TGI (UO-31 renal)
inactive: GI50 (786-0 renal) > 100 µM | GI50 (A498 renal) 33.6 µM | GI50 (A549 NSCLC) > 100 µM | GI50 (ACHN renal) > 100 µM | GI50 (BT-549 breast) > 100 µM | GI50 (CAKI-1 renal) > 100 µM | GI50 (COLO 205 colon) 66.5 µM | GI50 (DU-145 prostate) 49.9 µM | GI50 (EKVX NSCLC) > 100 µM | GI50 (HCT-116 colon) 44.9 µM | GI50 (HCT-15 colon) 55.8 µM | GI50 (HL-60(TB) leukemia) > 100 µM | GI50 (HS 578T breast) 91.2 µM | GI50 (HT29 colon) 47.3 µM | GI50 (IGROV1 ovarian) > 100 µM | GI50 (K-562 leukemia) 47 µM | GI50 (KM12 colon) 76.2 µM | GI50 (LOX IMVI melanoma) 71.2 µM | GI50 (M14 melanoma) > 100 µM | GI50 (MCF7 breast) 33.8 µM | GI50 (MDA-MB-231 breast) 53.5 µM | GI50 (MDA-MB-435) 82.3 µM | GI50 (MOLT-4 leukemia) 36.8 µM | GI50 (NCI-H226 lung) > 100 µM | GI50 (NCI-H23 lung) > 100 µM | GI50 (NCI-H460 lung) 43.4 µM | GI50 (NCI-H522 lung) > 100 µM | GI50 (NCI/ADR-RES ovarian) > 100 µM | GI50 (OVCAR-3 ovarian) 98.7 µM | GI50 (OVCAR-4 ovarian) > 100 µM | GI50 (OVCAR-5 ovarian) 13.6 µM | GI50 (OVCAR-8 ovarian) > 100 µM | GI50 (PC-3 prostate) > 100 µM | GI50 (RPMI-8226 leukemia) 78.7 µM | GI50 (RXF 393 renal) > 100 µM | GI50 (SF-268 CNS) 46 µM | GI50 (SF-295 CNS) > 100 µM | GI50 (SF-539 CNS) > 100 µM | GI50 (SK-MEL-2 melanoma) > 100 µM | GI50 (SK-MEL-28 melanoma) > 100 µM | GI50 (SK-MEL-5 melanoma) 35.3 µM | GI50 (SN12C renal) 47.3 µM | GI50 (SNB-19 CNS) > 100 µM | GI50 (SNB-75 CNS) > 100 µM | GI50 (SR leukemia) 32.1 µM | GI50 (SW-620 colon) 33.5 µM | GI50 (TK-10 renal) 6.85 µM | GI50 (U251 CNS) > 100 µM | GI50 (UACC-257 melanoma) > 100 µM | GI50 (UACC-62 melanoma) 47.5 µM | GI50 (UO-31 renal) > 100 µM
68.7 µM: TGI (TK-10 renal)
99.4 µM: TGI (OVCAR-5 ovarian)
